Source: US20250179103A1, “6-OXODECAHYDROPYRROLO[1,2-A][1,5]DIAZOCINE AND 6-OXODECAHYDRO-4H-PYRROLO[2,1-D][1,5]THIAZOCINE DERIVATIVES AS STAT3 AND STAT6 MODULATORS FOR THE TREATMENT OF CANCER AND INFLAMMATORY CONDITIONS” (Recludix Pharma, Inc., priority 2022, published 2025)
pIC50: −log10 of the molar value.

test system: pY641-STAT6 in Peripheral Blood Mononuclear Cells (PBMC); assay: MSD-pSTAT-PBMC Assay (pSTAT6, IL-4 stimulated); assay type: cell-based, Human; settings: Homo sapiens, compound 3 hrs, then 1 ng/mL IL-4 for 10 min
Source text: Cryopreserved Peripheral Blood Mononuclear Cells (PBMC) are from AllCells. Recombinant Human IL-4 and IL-6 are from Peprotech. Mouse monoclonal anti-STAT3 antibody, rabbit monoclonal anti-pY705-STAT3 antibody, rabbit monoclonal Anti-pY641-STAT6 antibody, and lysis buffer are from Cell Signaling Technology (CST). Mouse monoclonal anti-STAT6 antibody is from BioLegend. Assay plates, blocker, and anti-rabbit secondary antibody are from Meso Scale Discovery (MSD).
Cryopreserved PBMCs were thawed out and allowed to recover overnight in IMDM+10% heat-inactivated FBS prior to plating 50,000 (STAT3) or 25,000 (STAT6) cells per well in 96-well U-bottom tissue culture plates. Cells were treated with compound for 3 hrs, then stimulated with 10 ng/mL IL-6 (STAT3) or 1 ng/mL IL-4 (STAT6) for 10 min. Cells were then spun down and washed with ice-cold PBS prior to lysing the cell pellet with 1× lysis buffer (CST) with 1×HALT protease and phosphatase inhibitor cocktail (Thermo). Lysates were transferred to and incubated overnight at 4° C. with shaking in QuickPlex 96-well high bind assay plates (MSD) pre-coated overnight with 30 μL per well of 0.6 μg/mL mouse monoclonal anti-STAT3 antibody (STAT3) or 2 μg/mL mouse monoclonal anti-STAT6 antibody (STAT6) in 1×PBS, and pre-blocked for 1 hour with 3% Blocker-A (MSD). Captured protein in the assay plates were then washed and probed with 25 μL per well of 0.25 μg/ml rabbit monoclonal anti-pY705-STAT3 antibody (STAT3) or […] rabbit monoclonal Anti-pY641-STAT6 antibody (STAT6) in 1% Blocker-A for 1 hour at room temperature with shaking, then washed and probed with 25 ul per well of 1 ug/ml Sulfo-TAG Labeled Goat Anti-Rabbit Antibody (MSD) in 1% Blocker-A for 1 hour at room temperature with shaking. Assay plates were then washed and 150 μL of 1× Read Buffer-T (MSD) was added to each well prior to reading on an SQ120 MSD Plate Reader. Assay signal from each sample was subtracted by the signal from unstimulated control wells and normalized to DMSO control wells. IC50 values were calculated using Graph Pad Prism Dose-Response Nonlinear Regression with variable slope. For both pSTAT3 and pSTAT6 A=≤100 nM; B=>100-1000 nM; C=>1000-3000 nM; and D=>3 μM.

| Compound | pIC50 |
| --- | --- |
| CCCOC(=O)[C@H](C)NP(=O)(Oc1ccccc1)[C@@H](F)c1ccc2ccc(C(=O)N[C@H]3CN(C(=O)c4noc5ccc(C)cc45)CC[C@H]4CC[C@@H](C(=O)N5C(=O)N(c6cccnc6)C(=O)C56CC6)N4C3=O)cc2c1 (stereo partly drawn) [Compound 418, propyl (((R)-(7-(((5S,8S,10aR)-8-(5,7-dioxo-6-(pyridin-3-yl)-4,6-diazaspiro [2.4]heptane-4-carbonyl)-3-(5-methylbenzo [d]isoxazole-3-carbonyl)-6-oxodeca-hydropyrrolo [1,2a][1,5]diazocin-5-yl)carbamoyl)naphthalen-2-yl)fluoromethyl) (phenoxy)phosphoryl)-L-alaninate] | ≥ 7.00 |
| CCCOC(=O)[C@H](C)NP(=O)(Oc1ccccc1)C(F)c1ccc2ccc(C(=O)N[C@H]3CN(C(=O)c4noc5ccc(C)cc45)CC[C@H]4CC[C@@H](C(=O)N5C[C@@H](C)O[C@@H](C)C5)N4C3=O)cc2c1 (stereo partly drawn) [Compound 440, propyl (((7-(((5S,8S,10aR)-8-((2R,6S)-2,6-dimethyl-morpholine-4-carbonyl)-3-(5-methylbenzo [d]isoxazole-3-carbonyl)-6-oxodeca-hydropyrrolo [1,2-a][1,5]diazocin-5-yl)carbamoyl)naphthalen-2-yl)fluoromethyl) (phenoxy)phosphoryl)-L-alaninate] | ≥ 7.00 |
| CCCOC(=O)[C@H](C)NP(=O)(Oc1ccccc1)[C@@H](F)c1ccc2ccc(C(=O)N[C@H]3CN(C(=O)c4noc5ccc(C)cc45)CC[C@H]4CC[C@@H](C(=O)N5C[C@@H](c6ccn(C)c(=O)c6)CC56CC6)N4C3=O)cc2c1 (stereo partly drawn) [Compound 420, propyl (((R)-fluoro(7-(((5S,8S,10aR)-8-((R)-6-(1-methyl-2-oxo-1,2-dihydropyridin-4-yl)-4-azaspiro[2.4]heptane-4-carbonyl)-3-(5-methylbenzo [d]isoxazole-3-carbonyl)-6-oxodeca-hydropyrrolo [1,2-a][1,5]diazocin-5-yl)carbamoyl)naphthalen-2-yl)methyl) (phenoxy)phosphoryl)-L-alaninate] | ≥ 7.00 |
| Cc1ccc2onc(C(=O)N3CC[C@H]4CC[C@@H](C(=O)N5C[C@H](c6ccn(C)c(=O)c6)CC56CC6)N4C(=O)[C@@H](NC(=O)c4ccc5ccc(C(F)(F)P(=O)(OCCSC(=O)C(C)(C)C)OCCSC(=O)C(C)(C)C)cc5c4)C3)c2c1 [Compound 437, S,S′-((((difluoro(7 (((5S,8S,10aR)-8-((S)-6-(1-methyl-2-oxo-1,2-dihydropyridin-4-yl)-4-azaspiro[2.4]heptane-4-carbonyl)-3-(5-methylbenzo [d]isoxazole-3-carbonyl)-6-oxodeca-hydropyrrolo [1,2-a][1,5]diazocin-5-yl)carbamoyl)naphthalen-2-yl)methyl)phosphoryl)bis (oxy))bis (ethane-2,1-diyl))bis(2,2-dimethyl-propanethioate)] | ≥ 7.00 |
| Cc1ccc2onc(C(=O)N3CC[C@H]4CC[C@@H](C(=O)N5C[C@@H](c6cc[nH]c(=O)c6)CC56CC6)N4C(=O)[C@@H](NC(=O)c4ccc5ccc(C(F)(F)P(=O)(OCCSC(=O)C(C)(C)C)OCCSC(=O)C(C)(C)C)cc5c4)C3)c2c1 [Compound 435, S,S′-((((difluoro(7 (((5S,8S,10aR)-3-(5-methylbenzo [d]isoxazole-3-carbonyl)-6-oxo-8-((R)-6-(2-oxo-1,2-dihydro-pyridin-4-yl)-4-azaspiro[2.4]heptane-4-carbonyl)decahydro-pyrrolo[1,2-a] [1,5]diazocin-5-yl)carbamoyl)naphthalen-2-yl)methyl)phosphoryl)bis(oxy))bis (ethane-2,1-diyl))bis(2,2-dimethyl-propanethioate)] | ≥ 7.00 |
| CCCOC(=O)[C@H](C)NP(=O)(Oc1ccccc1)C(F)c1ccc2ccc(C(=O)N[C@H]3CN(C(=O)c4ncn5c4CCCC5)CC[C@H]4CC[C@@H](C(=O)N5CCOCC5)N4C3=O)cc2c1 (stereo partly drawn) [Compound 429, propyl ((fluoro(7-(((5S,8S,10aR)-8-(morpholine-4-carbonyl)-6-oxo-3-(5,6,7,8-tetrahydro-imidazo [1,5-a]pyridine-1-carbonyl)decahydropyrrolo [1,2-a][1,5]diazocin-5-yl)carbamoyl)naphthalen-2-yl)methyl) (phenoxy)phosphoryl)-L-alaninate] | < 5.52 |
| CCCOC(=O)[C@H](C)NP(=O)(Oc1ccccc1)[C@H](F)c1ccc2ccc(C(=O)N[C@H]3CN(C(=O)c4noc5ccc(C)cc45)CC[C@H]4CC[C@@H](C(=O)N5C[C@@H](c6ccn(C)c(=O)c6)CC56CC6)N4C3=O)cc2c1 (stereo partly drawn) [Compound 417, propyl (((S)-fluoro(7-(((5S,8S,10a R)-8-((R)-6-(1-methyl-2-oxo-1,2-dihydro-pyridin-4-yl)-4-azaspiro[2.4]heptane-4-carbonyl)-3-(5-methylbenzo [d]isoxazole-3-carbonyl)-6-oxodeca-hydropyrrolo [1,2-a][1,5]diazocin-5-yl)carbamoyl)naphthalen-2-yl)methyl) (phenoxy)phosphoryl)-L-alaninate] | ≥ 7.00 |
| CCCOC(=O)[C@H](C)NP(=O)(Oc1ccccc1)C(F)c1ccc2ccc(C(=O)N[C@H]3CCN(C(=O)c4cc(C)cc(Cl)c4)C[C@H]4CC[C@@H](C(=O)N5CCOCC5)N4C3=O)cc2c1 (stereo partly drawn) [Compound 422, propyl (((7-(((5S,8S,10aR)-2-(3-chloro-5-methylbenzoyl)-8-(morpholine-4-carbonyl)-6-oxodeca-hydropyrrolo [1,2-a][1,4]diazocin-5-yl)carbamoyl)naphthalen-2-yl)fluoromethyl) (phenoxy)phosphoryl)-L-alaninate] | 5.52 to 6.00 |
| CCCOC(=O)[C@H](C)NP(=O)(Oc1ccccc1)[C@@H](F)c1ccc2ccc(C(=O)N[C@H]3CN(C(=O)c4noc5ccc(C)cc45)CC[C@H]4CC[C@@H](C(=O)N5C[C@H](c6ccn(C)c(=O)c6)CC56CC6)N4C3=O)cc2c1 (stereo partly drawn) [Compound 421, propyl (((R)-fluoro(7-(((5S,8S,10aR)-8-((S)-6-(1-methyl-2-oxo-1,2-dihydropyridin-4-yl)-4-azaspiro [2.4]heptane-4-carbonyl)-3-(5-methylbenzo [d]isoxazole-3-carbonyl)-6-oxodeca-hydropyrrolo [1,2-a] [1,5]diazocin-5-yl)carbamoyl)naphthalen-2-yl)methyl) (phenoxy)phosphoryl)-L-alaninate] | ≥ 7.00 |
| CCCOC(=O)[C@H](C)NP(=O)(Oc1ccccc1)C(F)c1ccc2ccc(C(=O)N[C@H]3CN(C(=O)c4cc(Cl)c5nc(C)ccc5c4)CC[C@H]4CC[C@@H](C(=O)N5CCOCC5)N4C3=O)cc2c1 (stereo partly drawn) [Compound 407, propyl (((7-(((5S,8S,10aR)-3-(8-chloro-2-methylquinoline-6-carbonyl)-8-(morpholine-4-carbonyl)-6-oxodeca-hydropyrrolo [1,2-a][1,5]diazocin-5-yl)carbamoyl)naphthalen-2-yl)fluoromethyl) (phenoxy)phosphoryl)-L-alaninate] | 5.52 to 6.00 |
